The values below are quoted from earlier work in article PMC7004521 (Cancer Science, 2019).

The structures appear in SMILES notation. pIC50: −log10 of the molar value.

The test system of one data set is MET. The settings on record: biochemical assays; cited from earlier work.
The subject of the next data set is c‐MET phosphorylation. The note with it: read-out: EC90 (90% inhibition of c‐MET phosphorylation); total concentration; c‐MET‐dependent mouse tumor models; cited from earlier work.

Regarding `CNC(=O)c1ccc(-c2cnc3ncc(Cc4ccc5ncccc5c4)n3n2)cc1F` [capmatinib], the pIC50 (commonly −log10 of the IC50, conventionally taken in molar units) in the data set on MET is 9.89. For the same compound, in the data set with c‐MET phosphorylation, the EC90 – broadly, the point of the concentration-response curve where the effect stands at 90% – is around 71 nM.
